# Experimental data reported in ChEMBL document CHEMBL3217437, “The p53-MDM2/MDMX axis - A chemotype perspective” (Medchemcomm, 2011).
# Tests used:
# [1] = target: T1, Tumour suppressor p53/oncoprotein Mdm2 (Homo sapiens, UniProt P04637+Q00987); test: Inhibition of p53 interaction to MDM2 (unknown origin) by HTRF assay in presence of 0.02% bovine serum albumin; format: protein assay
# Target sequence in this assay (P04637 whole entry): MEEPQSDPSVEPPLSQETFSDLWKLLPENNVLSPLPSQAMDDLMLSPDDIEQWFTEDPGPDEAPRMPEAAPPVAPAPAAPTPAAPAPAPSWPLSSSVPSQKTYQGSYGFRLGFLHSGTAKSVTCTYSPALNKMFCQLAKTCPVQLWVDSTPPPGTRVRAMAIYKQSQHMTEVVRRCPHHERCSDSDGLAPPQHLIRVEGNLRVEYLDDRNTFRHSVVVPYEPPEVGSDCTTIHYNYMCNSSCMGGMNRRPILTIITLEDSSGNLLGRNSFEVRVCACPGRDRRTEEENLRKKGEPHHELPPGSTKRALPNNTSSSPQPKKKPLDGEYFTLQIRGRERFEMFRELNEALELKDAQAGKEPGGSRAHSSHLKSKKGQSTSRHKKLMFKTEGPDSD
# Target sequence in this assay (Q00987 whole entry): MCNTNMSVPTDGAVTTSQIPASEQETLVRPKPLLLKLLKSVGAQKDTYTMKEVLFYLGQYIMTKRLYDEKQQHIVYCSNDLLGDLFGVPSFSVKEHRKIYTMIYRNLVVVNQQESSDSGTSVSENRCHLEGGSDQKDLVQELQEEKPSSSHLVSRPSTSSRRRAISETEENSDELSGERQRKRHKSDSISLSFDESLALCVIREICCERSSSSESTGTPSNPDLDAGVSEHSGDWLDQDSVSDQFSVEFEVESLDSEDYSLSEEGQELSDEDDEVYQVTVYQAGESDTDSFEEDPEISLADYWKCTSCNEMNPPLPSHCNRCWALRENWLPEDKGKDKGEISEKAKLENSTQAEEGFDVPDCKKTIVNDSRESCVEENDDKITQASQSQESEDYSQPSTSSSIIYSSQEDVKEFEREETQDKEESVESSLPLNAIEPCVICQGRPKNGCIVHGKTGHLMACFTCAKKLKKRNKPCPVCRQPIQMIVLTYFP
# [2] = target: T1, Tumour suppressor p53/oncoprotein Mdm2; test: Inhibition of p53 interaction to GST-tagged MDM2 (unknown origin); format: protein assay
# Target sequence in this assay (P04637 whole entry): as the sequence (P04637 whole entry) above
# Target sequence in this assay (Q00987 whole entry): as the sequence (Q00987 whole entry) above
# A2780 = test: Antiproliferative activity against human A2780 cells; format: functional, cell-based
# [3] = target: T1, Tumour suppressor p53/oncoprotein Mdm2; test: Inhibition of p53 interaction to MDM2 (unknown origin) by HTS assay; format: protein assay
# Target sequence in this assay (P04637 whole entry): as the sequence (P04637 whole entry) above
# Target sequence in this assay (Q00987 whole entry): as the sequence (Q00987 whole entry) above
# [4] = target: T1, Tumour suppressor p53/oncoprotein Mdm2; test: Inhibition of p53 interaction to MDM2 (unknown origin) by fluorescence polarization assay; format: protein assay
# Target sequence in this assay (P04637 whole entry): as the sequence (P04637 whole entry) above
# Target sequence in this assay (Q00987 whole entry): as the sequence (Q00987 whole entry) above
# [5] = Antiproliferative activity against human DLD1 cells; format: functional, cell-based; details: DLD-1
# [6] = target: T1, Tumour suppressor p53/oncoprotein Mdm2; test: Inhibition of His-tagged p53 interaction to GST-tagged MDM2 (unknown origin); format: protein assay
# Target sequence in this assay (P04637 whole entry): as the sequence (P04637 whole entry) above
# Target sequence in this assay (Q00987 whole entry): as the sequence (Q00987 whole entry) above
# NCI-H460 = test: Antiproliferative activity against human NCI-H460 cells; format: functional, cell-based
# [7] = target: Tumour suppressor protein p53/Mdm4 (Homo sapiens, UniProt O15151); test: Inhibition of p53 interaction to MDMX (unknown origin) by fluorescence polarization assay; format: protein assay
# Tumour suppressor protein p53/Mdm4, sequence (P04637 whole entry): as the sequence (P04637 whole entry) above
# Tumour suppressor protein p53/Mdm4, sequence (O15151 whole entry): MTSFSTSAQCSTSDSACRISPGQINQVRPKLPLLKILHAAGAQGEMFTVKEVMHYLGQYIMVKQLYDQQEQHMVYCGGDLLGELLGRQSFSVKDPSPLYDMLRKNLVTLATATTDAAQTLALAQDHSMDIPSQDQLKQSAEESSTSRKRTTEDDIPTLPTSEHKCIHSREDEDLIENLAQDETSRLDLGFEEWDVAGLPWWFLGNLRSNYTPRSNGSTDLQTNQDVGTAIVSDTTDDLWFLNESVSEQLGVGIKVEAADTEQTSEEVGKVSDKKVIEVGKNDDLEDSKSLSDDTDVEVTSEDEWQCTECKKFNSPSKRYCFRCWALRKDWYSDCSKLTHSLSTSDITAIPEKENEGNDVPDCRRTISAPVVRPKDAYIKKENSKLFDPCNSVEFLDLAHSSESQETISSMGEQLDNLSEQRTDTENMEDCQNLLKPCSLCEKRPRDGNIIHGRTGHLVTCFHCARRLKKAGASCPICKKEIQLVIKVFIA
# [8] = target: T1, Tumour suppressor p53/oncoprotein Mdm2; test: Inhibition of p53 interaction to MDM2 (unknown origin); format: protein assay
# Target sequence in this assay (P04637 whole entry): as the sequence (P04637 whole entry) above
# Target sequence in this assay (Q00987 whole entry): as the sequence (Q00987 whole entry) above
# [9] = target: T1, Tumour suppressor p53/oncoprotein Mdm2; test: Inhibition of p53 interaction to MDM2 (unknown origin) at 1.4 uM by HTRF assay; format: protein assay
# Target sequence in this assay (P04637 whole entry, looked up): as the sequence (P04637 whole entry) above
# Target sequence in this assay (Q00987 whole entry, looked up): as the sequence (Q00987 whole entry) above
smiles,measurement,setting,value
CC(C)(C)C[C@@H]1N[C@@H](C(=O)NCC[C@H](O)CO)[C@@H](c2cc(F)cc(Cl)c2)[C@@]1(C#N)c1ccc(Cl)cc1F,IC50,[1],165 nM
CC(=O)N1CCC(Oc2ccc(I)cc2[C@@H]2NC(=O)C[C@H](c3cccc(Cl)c3)[C@@]23C(=O)Nc2cc(Cl)ccc23)CC1,IC50,[2],34 nM
Fc1cc(Nc2ccncc2)cc(F)c1NCCc1c[nH]c2ccccc12,IC50,A2780,> 10000 nM
Cc1ccc(F)cc1[C@@H]1NC(=O)C[C@H](c2cc(Cl)cnc2CC(C)(C)C(=O)O)[C@@]12C(=O)Nc1cc(Cl)ccc12,IC50,[1],145 nM
COC(=O)[C@]1(c2ccc(Cl)cc2)N=CN(CC2CC2)[C@H]1c1ccc(Cl)cc1,Ki,[3],3000 nM
CC(C)Cc1cc(CCC(=O)O)ccc1-c1ccc(-c2ccc(OCC(=O)O)c(Cc3ccccc3)c2)c(Cc2ccccc2)c1,Ki,[4],970 nM
CC(C)C1=C(C(=O)N2CCC[C@H]2C(=O)N(C)C)SC2=N[C@@](C)(c3ccc(Cl)nc3)[C@@H](c3ccc(Cl)cc3)N21,IC50,[5],40.7 µM
same,IC50,[6],14 nM
same,IC50,NCI-H460,1380 nM
CC(C)(C)C[C@H]1N[C@@H](C(=O)NCCN2CCOCC2)[C@H](c2cccc(Cl)c2F)[C@@]12C(=O)Nc1cc(Cl)ccc12,Ki,[7],55 µM
COc1cccc(C2(Cc3cccc(Cl)c3)C(=O)Nc3cc(Cl)ccc32)c1 (configuration not stated),IC50,[8],460 nM
COC(=O)c1cccc(S(=O)(=O)N2c3ccc(C(=O)N4CCN(C)CC4)c(=O)n3[C@@H](c3ccc(Cl)cc3)[C@H]2c2ccc(Cl)cc2)c1,IC50,[8],460 nM
OC1CCc2c(Nc3ccc4c(c3)OCCN4CCc3c[nH]c4ccccc34)ccnc21 (configuration not stated),IC50,A2780,427 nM
Clc1ccc2c(-c3c(-c4ccc5c(c4)OCO5)ncn3CC3CC3)c[nH]c2c1,Ki,[3],1000 nM
Cc1ccc(CN2C(=O)c3ccccc3C2(O[C@H]2C=C[C@@H](O)C2)c2ccc(Cl)cc2)cc1 (some centres not stated),IC50,[8],1400 nM
CC(C)(C)c1ncc(C2=N[C@@](C)(c3ccc(Cl)cc3)[C@@](C)(c3ccc(Cl)cc3)N2C(=O)N2CCN(CCOCCO)CC2)cn1,IC50,[8],31 nM
O=C1C[C@H](c2cccc(Cl)c2)[C@@]2(C(=O)Nc3cc(Cl)ccc32)[C@H](c2cccc(Cl)c2)C1,inhibition,[9],94.4%
COc1cccc([C@]2(Cc3cccc(Cl)c3)C(=O)Nc3cc(Cl)ccc32)c1,IC50,[8],280 nM
CC(C)(C)C[C@@H]1N[C@@H](C(=O)NCCCCO)[C@@H](c2cccc(Cl)c2)[C@@]1(C#N)c1ccc(Cl)cc1,IC50,[1],309 nM
Cc1ccc(F)cc1[C@@H]1NC(=O)C[C@H](c2ccccc2OC(C)(C)C(=O)N2CCC(F)(F)CC2)[C@@]12C(=O)Nc1cc(Cl)ccc12,IC50,[8],54 nM
COc1cc(C(=O)N(C)[C@@H](Cc2c[nH]c3ccccc23)C(=O)N2CCN(c3ccc([N+](=O)[O-])cc3)CC2)c([N+](=O)[O-])cc1OC,IC50,[8],30 nM
Cc1cccc([C@H]2N(CC(=O)O)C(=O)C[C@@H](c3cccc(Cl)c3)[C@]23C(=O)Nc2cc(Cl)ccc23)c1 (racemic),IC50,[8],370 nM
C=C(CC)[C@H]1N2CC(=O)N(CCCN(C)C)N=C2C[C@@H](c2cccc(Cl)c2)[C@]12C(=O)Nc1cc(Cl)ccc12,IC50,[8],100 nM
Cc1ccc(F)cc1[C@H]1NC(=O)C=C(c2cccc(Cl)c2)[C@]12C(=O)Nc1cc(Cl)ccc12,IC50,[1],66 nM
CCOC(=O)N1CCN(C(=O)[C@@]2(Sc3ccccc3)CC(=O)N(Cc3ccc(C#N)cc3)[C@@H]2c2c[nH]c3cc(Cl)ccc23)CC1,IC50,[8],1000 nM
CC(C)C1=C(C(=O)N2C[C@H](F)C[C@H]2C(=O)N2CCNC3(CC3)C2)SC2=N[C@@](C)(c3ccc(Cl)nc3)[C@@H](c3ccc(Cl)c(F)c3)N21,IC50,[8],2.8 nM
CCOC(=O)[C@@]1(c2ccc(Cl)cc2)N=C(c2ccc(OC)cc2OC(C)C)N(C(=O)N2CCN(C(C)=O)CC2)[C@@H]1c1ccc(Cl)cc1,IC50,[8],70 nM
